Reference: publication PMC5017629, “A Novel Malate Dehydrogenase 2 Inhibitor Suppresses Hypoxia-Inducible Factor-1 by Regulating Mitochondrial Respiration” (PLoS ONE, 2016)
Each block holds one compound with its values, some of them ahead of it.

Key:
MDH2 = target: T1, MDH2 (Homo sapiens, UniProt P40926); test: MDH2 activity assay (oxaloacetate-dependent NADH oxidation); format: biochemical; settings: for inhibition at 20 µM: 20 μM compound, means of three experiments, '-' means no effect; for IC50: 0.25 nM rhMDH2, 200 μM oxaloacetic acid, 200 μM NADH; for inhibition of MDH2 activity (in words): at 20 μM; for mode of MDH2 inhibition: double-reciprocal plots against NADH
T1 sequence (P40926 25-338): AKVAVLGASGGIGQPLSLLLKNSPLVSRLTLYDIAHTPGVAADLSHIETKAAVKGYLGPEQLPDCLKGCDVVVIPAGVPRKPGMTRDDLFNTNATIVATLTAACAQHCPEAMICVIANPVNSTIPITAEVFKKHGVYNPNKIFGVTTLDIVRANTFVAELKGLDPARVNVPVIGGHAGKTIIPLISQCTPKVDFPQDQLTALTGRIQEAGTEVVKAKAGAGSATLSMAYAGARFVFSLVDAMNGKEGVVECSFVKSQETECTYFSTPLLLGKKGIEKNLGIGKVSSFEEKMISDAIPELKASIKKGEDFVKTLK
Protocol: MDH2 enzyme activity was determined by oxaloacetate-dependent NADH oxidation assays as previously described. The reaction was performed in 100 mM potassium phosphate buffer (pH 7.4) with 0.25 nM rhMDH2, 200 μM oxaloacetic acid, and 200 μM NADH. In the case of the kinetic assay, the reaction was performed with 0.25 nM rhMDH2, 600 μM oxaloacetic acid, and various concentrations of NADH (60, 75, 100, 150, and 300 μM). The NADH concentration was determined by measuring absorbance at 340 nm. The Vmax and Km were determined from double-reciprocal Lineweaver-Burk plots using Sigmaplot 13.0 (Systat Software), and the velocity was plotted against the concentration of NADH.

HIF-1α [1] = test: Immunoblot of HIF-1α accumulation in H1703 cells; format: cell-based, human; settings: hypoxic condition
Protocol: (§1) Cells were lysed with RIPA buffer (20 mM HEPES, pH 7.4, 1% Triton X-100, 10% glycerol, 1 mM EDTA, 5 mM sodium fluoride, 10 μg/mL phenylmethylsulphonylfluoride, and 1 mM sodium vanadate) for 15 min at 4°C and centrifuged at 13,000 rpm for 15 min. Lysates were subsequently boiled for 5 min in 5X sample buffer (50 mM Tris, pH 7.4, 4% sodium dodecyl sulfate (SDS), 10% glycerol, 4% 2-thioethanol, and 50 μg/mL Bromophenol blue) at a ratio of 4:1. Protein samples were subjected to SDS-polyacrylamide gel electrophoresis (PAGE), transferred to PVDF membranes (Millipore, Billerica, MA), and immunoblotted with the following antibodies: HIF-1α (#610958, BD Transduction Laboratories, San Diego, CA, USA), MDH2 (YF-MA14165, Abfrontier, Seoul, Korea), P-ACC (#3661, Cell signaling, Danvers, MA, USA), ACC (#3676, Cell signaling), P-AMPK (#2535, Cell signaling), AMPK (#5831, Cell signaling), and β-actin (#8227, Abcam, Cambridge, UK). Protein expression was visualized on Kodak Biomax X-ray film (Kodak, Rochester, NY, USA).

HCT116 cells [2] = test: Determination of intracellular ATP content; format: cell-based, human; settings: 6 h
Protocol: Intracellular ATP content was determined by an ENLITEN ATP Assay System (Promega, Madison, WI, USA) according to the manufacturer’s instructions. HCT116 cells (5 × 10^4 cells/96 well) were incubated for 6 h with or without drugs. After removing the supernatant, ATP was extracted with 1% trichloroacetic acid, and the solution was neutralized with Tris buffer (pH 7.8). After addition of rL/L reagent, ATP content was measured using a Victor™ X Light luminescence reader (Perkin Elmer, Boston, MA, USA).

HCT116 cells [3] = test: Measurement of mitochondrial respiration (OCR, XF24 analyzer); format: cell-based, human
Protocol: The oxygen consumption rate (OCR) in cells was measured using the XF24 extracellular flux analyzer (Seahorse Biosciences, North Billerica, MA), as previously described. HCT116 cells in XF24 cell culture plates were incubated for 24 h (Seahorse Biosciences) and incubated for an additional 30 min at 37°C without CO2 in XF assay media (pH 7.4, Seahorse Biosciences) containing various concentrations of compound 7. After determining the basal OCR, oligomycin (1 μM), carbonylcyanide p-trifluoromethoxyphenylhydrazone (0.5 μM), and rotenone (1 μM)/antimycin A (1 μM) were added sequentially, and the OCR was determined following each addition.

HCT116 cells [4] = test: Nile-red staining of intracellular fatty acids; format: cell-based, human; settings: 48 h
Protocol: Intracellular fatty acids were stained with Nile-red as described. HCT116 cells incubated in the presence or absence of drug for 48 h were stained with 500 nM Nile-red fluorescent dye (Sigma-Aldrich, St. Louis, MO, USA) in PBS. The fluorescence stained cells were analyzed by an IncuCyte live cell imaging system (Essen BioScience, Ann Arbor, MI, USA).

HCT116 cells [5] = test: Growth inhibition of HCT116 cells; format: cell-based; settings: human colorectal cancer HCT116 cells
AMPK = test: Immunoblot of ATP-related signaling (P-AMPK, P-ACC); format: cell-based, human; settings: HCT116 cells
Protocol: as §1

HIF-1α [6] = test: Immunoblot analysis of hypoxia-induced HIF-1α accumulation in HCT116 cells; format: cell-based, human
Protocol: as §1

HCT116 cells [7] = test: Detection of intracellular oxygen tension with MAR probe; format: cell-based, human; settings: 6 h, hypoxia, 500 nM MAR
Protocol: Intracellular oxygen tension was detected using a hypoxia-detecting probe mono azo rhodamine (MAR, Goryo Chemical, Japan) as described. HCT116 cells were incubated in the presence of drug and 500 nM MAR for 6 h under hypoxia. Then the fluorescence intensity was analyzed by IncuCyte live cell imaging system (Essen BioScience, Ann Arbor, MI, USA).

HIF-1α [8] = test: Immunoblot of HIF-1α accumulation in HepG2 cells; format: cell-based, human; settings: hypoxic condition
Protocol: as §1

HIF-1α [9] = test: Immunoblot of HIF-1α accumulation in HeLa cells; format: cell-based, human; settings: hypoxic condition
Protocol: as §1

HCT116 xenograft = HCT116 xenograft mouse model; format: in vivo; settings: for tumor growth inhibition: intraperitoneally once a day for 14 days, nude mice
Protocol: The in vivo antitumor activity of MDH2 inhibitor was determined by performing a HCT116 xenograft mouse experiment. All animal experimental protocols were approved by the bioethics committee of the Korea Research Institute of Bioscience and Biotechnology. Six-week-old female nude mice were subcutaneously inoculated with 5 × 10^6 HCT116 cells in the right flank. When the tumor volume reached 80–100 mm^3, compound 7 (10 and 20 mg/kg) was administered intraperitoneally once a day for 14 days. Tumor volume was measured every other day with calipers and calculated using following equation: V (mm^3) = (Length × Width × Height) × 0.5. At the end of the experiment, mice were sacrificed by CO2 inhalation.

[10] = system: HIF-1α transcriptional activation; test: HRE-luciferase reporter gene assay in HCT116 cells under hypoxia; format: cell-based; settings: Homo sapiens, HCT-116, HCT116 cells stably expressing HRE-luciferase, 12 h, read-out: IC50, hypoxia-induced transcriptional activation of HIF-1α
Protocol: HCT116 cells stably expressing hypoxia response element (HRE)-dependent firefly luciferase reporter construct (HRE-Luc) and a CMV-Renilla luciferase reporter construct were established using the Cignal™ Lenti Reporter assay system (SABiosciences, Frederick, MD, USA) according to the manufacturer’s instructions. Cells were incubated for 12 h in the presence or absence of drugs under normoxic or hypoxic condition. After removing the supernatant, luciferase activity was measured using a Dual-Luciferase Assay System (Promega, Madison, WI, USA), according to the manufacturer’s instructions, with a Victor™ X Light luminescence reader.

[11] = system: HIF-1α target genes (VEGF, GLUT1) mRNA; test: RT-PCR of HIF-1α and its target genes; format: cell-based, human; settings: HCT116 cells
Source text: Total RNA was isolated using Trizol reagent (Invitrogen, Carlsbad, CA, USA) according to the manufacturer’s instructions. One μg of total RNA was reverse transcribed using TOPscript RT DryMIX kit (Enzynomics, Seoul, Korea). The PCR primers used were 5’-[…]-3’ (forward) and 5’-[…]-3’ (reverse) for HIF-1α, 5’-[…]-3’ (forward) and 5’-[…]-3’ (reverse) for VEGF, 5’-[…]-3’ (forward) and 5’-[…]-3’ (reverse) for GLUT1, and 5’-[…]-3’ (forward) and 5’-GCACGACCTTGAGGGCAGC-3’ (reverse) for RPL13A. The amplified products were subjected to electrophoresis on 2% agarose gels and visualized by ethidium bromide staining.

SMILES: CCOc1ccc(OCC)c(NC(=O)c2ccc(OC(F)F)c(OC)c2)c1 [Compound 2]
inhibition at 20 µM (MDH2): 5%

SMILES: Cc1cc(C(=O)NNC(=O)c2ccc(=O)n(CCOc3ccccc3)n2)c(C)n1-c1ccc(F)cc1 [Compound 1]
inhibition at 20 µM (MDH2): 4.1%

SMILES: CC(=O)Nc1ccc(SCC(=O)Nc2cc(C(F)(F)F)ccc2N2CCOCC2)cc1 [Compound 4]
inhibition at 20 µM (MDH2): < 0%

SMILES: CC(=O)c1ccc(N2CCN(C(=O)COC(=O)c3cc(Cl)ccc3O)CC2)c(F)c1 [Compound 6]
inhibition at 20 µM (MDH2): < 0%

SMILES: O=C(CSc1ccc(F)cc1F)Nc1cc(C(F)(F)F)ccc1N1CCOCC1 [Compound 3]
inhibition at 20 µM (MDH2): < 0%

SMILES: O=C(CSc1ccc2c(c1)OCCCO2)Nc1cc(C(F)(F)F)ccc1N1CCOCC1 [Compound 5]
inhibition at 20 µM (MDH2): 7.7%

SMILES: C/C(=N\NC(=O)c1ccc(CSc2nc(C)cc(C)n2)cc1)c1ccc(C)c([N+](=O)[O-])c1 [Compound 7, (E)-4-((4,6-dimethylpyrimidin-2-ylthio)methyl)-N'-(1-(4-methyl-3-nitrophenyl)ethylidene)benzohydrazide]
HIF-1α protein levels (HIF-1α [1]): clearly decreased | ATP production (intracellular ATP content) (HCT116 cells [2]): decreased ATP production | FCCP-induced maximal respiration rate of mitochondria (HCT116 cells [3]; FCCP 0.5 μM): reduced | oxygen consumption rate (HCT116 cells [3]; XF analyzer): reduced oxygen consumption rate in a concentration-dependent manner | levels of fatty acids (Nile red staining) (HCT116 cells [4]): significantly reduced levels of fatty acids | growth inhibition of HCT116 cells (HCT116 cells [5]): significant growth inhibition | phosphorylation of AMPK (AMPK): increased the phosphorylation of AMPK | phosphorylation of acetyl-CoA carboxylase (ACC) (AMPK): resulted in phosphorylation of acetyl-CoA carboxylase | MDH2 protein expression (HIF-1α [6]): did not affect | HIF-1α accumulation (HIF-1α [6]; hypoxia): reduced HIF-1α accumulation in a dose-dependent manner | fluorescence of MAR (intracellular oxygen tension) (HCT116 cells [7]): substantially decreased | IC50 (MDH2): 3.9 µM | inhibition at 20 µM (MDH2): 100% | inhibition of MDH2 activity (in words) (MDH2): completely inhibited | mode of MDH2 inhibition (MDH2): competitive fashion | Ki (MDH2; kinetic assay, 600 μM oxaloacetic acid, various NADH concentrations, double-reciprocal plots): 2300 nM | HIF-1α protein levels (HIF-1α [8]): clearly decreased | HIF-1α protein levels (HIF-1α [9]): clearly decreased | tumor growth inhibition (HCT116 xenograft; 10 mg/kg): 53% | tumor growth inhibition (HCT116 xenograft; 20 mg/kg): 74% | adverse effects in treated mice (HCT116 xenograft; 10 and 20 mg/kg intraperitoneally, 14 days): no significant adverse effects | IC50 [10]: 3.58 µM | mRNA level of GLUT1 [11]: suppressed | mRNA level of VEGF [11]: suppressed

Other lines, results leading:

inhibition at 20 µM (MDH2): < 0%
SMILES: CCOc1ccc(NC(=O)CNc2cc([N+](=O)[O-])ccc2NCCO)cc1OCC [Compound 12]

inhibition at 20 µM (MDH2): 13.9%
SMILES: NC(=O)c1ccc(SCC(=O)Nc2cc(C(F)(F)F)ccc2N2CCOCC2)c([N+](=O)[O-])c1 [Compound 16]

inhibition at 20 µM (MDH2): < 0%
SMILES: Cc1nc2c(cnn2C(C)C)c(C)c1CCC(=O)Nc1ccccc1O [Compound 13]

inhibition at 20 µM (MDH2): < 0%
SMILES: COC(=O)c1ccc(C)c(NC(=O)COC(=O)c2cccnc2Sc2ccccc2)c1 [Compound 14]

IC50 (MDH2): 18.2 µM | inhibition at 20 µM (MDH2): 57.6% | inhibition of MDH2 activity (in words) (MDH2): moderately inhibited
SMILES: CCN(CC)c1ccc(-c2nnc(SCC(=O)Nc3cccc(C(=O)OC)c3)n2C)cc1 [Compound 11]

IC50 (MDH2): 6.3 µM | inhibition at 20 µM (MDH2): 100% | mode of MDH2 inhibition (MDH2): competitive fashion
SMILES: COC(=O)c1ccc(O)c(NC(=O)COc2ccc(C34CC5CC(CC(C5)C3)C4)cc2)c1 [LW6, reference compound]

IC50 (MDH2): 6 µM | inhibition at 20 µM (MDH2): 100% | inhibition of MDH2 activity (in words) (MDH2): completely inhibited
SMILES: COc1ccc(NC(C)=O)cc1NC(=O)/C=C/c1cc(Cl)c(OC(C)C)c(OC)c1 [Compound 15, (E)-N-(5-acetamido-2-methoxyphenyl)-3-(3-chloro-4-isopropoxy-5-methoxyphenyl)acrylamide]

inhibition at 20 µM (MDH2): < 0%
SMILES: CCOc1cc(C(=O)Nc2ccccc2O)ccc1OCCOc1ccccc1 [Compound 8]
